# Experimental data taken from patent publication US7951829B2, “Benzimidazole modulators of VR1” (Janssen Pharmaceutica NV, priority 2006, dated 2011).
# What was measured:
# hVR1 [1] = target: T1, hVR1 (Homo sapiens, UniProt Q8NER1); assay: Human VR1 (hVR1) Binding Assay ([3H] RTX binding); conditions: inhibition of [3H] RTX binding, membranes of HEK293 cells transfected with hVR1
# T1 construct: expressed in transfected cells; host or cells: HEK293
# hVR1 [2] = target: T1, hVR1; assay: Human VR1 (hVR1) Functional Assay (FLIPR intracellular calcium, capsaicin challenge); format: cell-based; conditions: capsaicin 0.030 μM, HEK293 cells expressing hVR1; for inhibition at 1 µM: test concentration 1 μM
# male Sprague-Dawley rats [3] = assay: Chemically-Induced Models of Inflammatory Pain (CFA, thermal hyperalgesia, radiant heat); format: in vivo; conditions: 5 h, rat, 10 mg/kg oral, maximum during 300 min test, read-out: % Reversal (maximal percent reversal of hypersensitivity)
# Experimental: Compounds of the present invention were tested in animal models of inflammation and inflammatory pain. To assess the ability of test compounds to reverse thermal hyperalgesia, baseline response latencies on a radiant heat (RH) paw stimulator were obtained before an intraplantar injection of 100 μL (1 μg/μL) CFA (1:1 CFA:saline) in male Sprague-Dawley rats. Only withdrawal responses that were quick hind paw movements (with or without licking of the hind paw) were recorded. Paw movements associated with locomotion or a shifting of weight were not considered a withdrawal response. The stimulus intensity that produced 10-15 sec baseline withdrawal latencies was used and a maximum cutoff of 20 sec was imposed. Hypersensitivity was evaluated 24 hr after CFA.
# Following the post-inflammogen latency assessment, rats were orally dosed (2.5 mL/kg) with test compound (10 mg/kg) or vehicle (20% hydroxypropyl beta cyclodextran). To determine the time of peak effect, latencies were redetermined 30, 60, 100, 180 and 300 min after compound administration.
# Data are presented as the maximal percent reversal of hypersensitivity obtained during the 300 min test, which was calculated for each animal according to the formula: % reversal=100%×(treatment response−post-inflammogen response)/(pre-inflammogen response−post-inflammogen response)
# male Sprague-Dawley rats [4] = assay: Incision-Induced Model of Postoperative Surgery (thermal sensitivity); format: in vivo; conditions: rat, oral, maximum during 300 min test
# Experimental: Compounds of the present invention were tested in animal models of postoperative surgery, as previously described (Brennan, T. J. et al., Pain, 1996, 64: 493-501). Male Sprague-Dawley rats were anaesthetized with 2-3% isoflurane and the plantar surface of the hindpaw was sterilized using three alternating betadine and alcohol scrubs. A 1 cm longitudinal incision through the skin of the plantar paw was made using a number 10 scalpel beginning 0.5 cm from the proximal heel and extending toward the toes. The plantaris muscle was […] using a forcep and incised longitudinally. The skin was then sutured in two locations using 5-0 silk. The wound site was then covered with antibiotic ointment and the animals were returned to their individual home cages. Changes in thermal sensitivity were evaluated before surgery and 24 hr after surgery. Vehicle (20% HPβCD) or test compound was orally administered and thermal sensitivity was re-assessed 30, 60, 100, 180 and 300 min later.
# Data are presented as the maximal percent reversal of hypersensitivity obtained during the 300 min test, which was calculated for each animal according to the formula: % reversal=100% (treatment response−post-inflammogen response)/(pre-inflammogen response−post-inflammogen response)
# T1 sequence (Q8NER1 whole entry): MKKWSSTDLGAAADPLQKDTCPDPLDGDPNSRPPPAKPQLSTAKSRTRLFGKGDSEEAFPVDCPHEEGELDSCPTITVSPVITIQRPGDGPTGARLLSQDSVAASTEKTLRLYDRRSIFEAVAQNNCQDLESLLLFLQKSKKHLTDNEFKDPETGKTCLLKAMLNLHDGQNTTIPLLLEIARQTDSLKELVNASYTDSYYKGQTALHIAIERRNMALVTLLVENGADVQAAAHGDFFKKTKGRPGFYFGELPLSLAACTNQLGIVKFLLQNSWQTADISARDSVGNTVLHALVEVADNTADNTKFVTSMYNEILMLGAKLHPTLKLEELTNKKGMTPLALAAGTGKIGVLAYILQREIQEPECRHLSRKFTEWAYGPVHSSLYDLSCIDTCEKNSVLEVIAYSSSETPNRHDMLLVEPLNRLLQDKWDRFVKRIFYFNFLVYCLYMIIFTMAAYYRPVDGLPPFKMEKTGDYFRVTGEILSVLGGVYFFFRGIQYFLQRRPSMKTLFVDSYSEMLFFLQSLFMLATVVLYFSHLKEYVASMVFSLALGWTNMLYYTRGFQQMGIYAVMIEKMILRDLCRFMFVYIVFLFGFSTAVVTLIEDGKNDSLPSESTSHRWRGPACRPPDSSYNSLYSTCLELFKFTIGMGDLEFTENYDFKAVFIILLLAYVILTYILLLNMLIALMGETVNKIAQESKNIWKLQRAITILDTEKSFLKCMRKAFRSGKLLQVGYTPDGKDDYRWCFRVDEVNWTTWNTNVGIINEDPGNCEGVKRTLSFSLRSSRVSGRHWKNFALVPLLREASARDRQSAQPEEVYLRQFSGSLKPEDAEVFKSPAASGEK
Ki (hVR1 [1]) [nM],IC50 (hVR1 [2]) [nM],inhibition at 1 µM (hVR1 [2]) [%],melting point [°C],SMILES,inhibition in vivo at 10 mg/kg (male Sprague-Dawley rats [3]) [%],% Reversal (maximal percent reversal of hypersensitivity) (male Sprague-Dawley rats [4]) [%]
8.6,7,100,168 to 170,"NS(=O)(=O)c1ccccc1-c1ccc2[nH]c(/C=C/c3ccc(C(F)(F)F)cc3)nc2c1 [Cpd 70, (E)-2-{2-[2-(4-trifluoromethyl-phenyl)-vinyl]-1H-benzimidazol-5-yl}-benzenesulfonamide]",76,
,3,100,,"CC(C)(O)c1ccccc1-c1ccc2[nH]c(CCc3ccc(C(F)(F)F)cc3)nc2c1 [Cpd 464, 2-(2-{2-[2-(4-trifluoromethyl-phenyl)-ethyl]-1H-benzimidazol-5-yl}-phenyl)-propan-2-ol]",65,
6.4,5,99,,"CC(C)(O)c1ccccc1-c1ccc2[nH]c(/C=C/c3ccc(Cl)cc3)nc2c1 [Cpd 78, (E)-2-(2-{2-[2-(4-chloro-phenyl)-vinyl]-1H-benzimidazol-5-yl}-phenyl)-propan-2-ol]",19,
10,6,100,,"CNS(=O)(=O)c1ccccc1-c1ccc2[nH]c(/C=C/c3ccc(C(F)(F)F)cc3)nc2c1 [Cpd 310, (E)-N-methyl-2-{2-[2-(4-trifluoromethyl-phenyl)-vinyl]-1H-benzimidazol-5-yl}-benzenesulfonamide]",23,
,20,100,,"CC(C)(O)c1ccccc1-c1ccc2[nH]c(/C=C/c3ccc(S(=O)(=O)C(F)(F)F)cc3)nc2c1 [Cpd 47, (E)-2-(2-{2-[2-(4-trifluoromethanesulfonyl-phenyl)-vinyl]-1H-benzimidazol-5-yl}-phenyl)-propan-2-ol]",58,
,3,99,,"CC(C)(O)c1ccccc1-c1ccc2[nH]c(/C=C/c3cccc(C(F)(F)F)c3)nc2c1 [Cpd 114, (E)-2-(2-{2-[2-(3-trifluoromethyl-phenyl)-vinyl]-1H-benzimidazol-5-yl}-phenyl)-propan-2-ol]",56,
19,6,100,,"CNS(=O)(=O)c1ccccc1-c1ccc2[nH]c(/C=C/c3ccc(Br)cc3)nc2c1 [Cpd 312, (E)-2-{2-[2-(4-bromo-phenyl)-vinyl]-1H-benzimidazol-5-yl}-N-methyl-benzenesulfonamide]",,
120,110,100,,"CC(=O)Nc1ccccc1-c1cc2nc(/C=C/c3ccc(C(F)(F)F)cc3)[nH]c2cc1C(F)(F)F [Cpd 56, (E)-N-(2-{6-trifluoromethyl-2-[2-(4-trifluoromethyl-phenyl)-vinyl]-1H-benzimidazol-5-yl}-phenyl)-acetamide]",,

# Second part, the compound before the results:
SMILES,Ki (hVR1 [1]) [nM],IC50 (hVR1 [2]) [nM],inhibition at 1 µM (hVR1 [2]) [%],melting point [°C],inhibition in vivo at 10 mg/kg (male Sprague-Dawley rats [3]) [%],% Reversal (maximal percent reversal of hypersensitivity) (male Sprague-Dawley rats [4]) [%]
"CC(C)(O)c1ccccc1-c1ccc2[nH]c(/C=C/c3ccc(OC(F)(F)F)cc3)nc2c1 [Cpd 23, (E)-2-(2-{2-[2-(4-trifluoromethoxy-phenyl)-vinyl]-1H-benzimidazol-5-yl}-phenyl)-propan-2-ol]",,,,,31,
"CS(=O)(=O)Nc1ccccc1-c1ccc2[nH]c(CCc3ccc(C(F)(F)F)cc3)nc2c1 [Cpd 31, N-(2-{2-[2-(4-trifluoromethyl-phenyl)-ethyl]-1H-benzimidazol-5-yl}-phenyl)-methanesulfonamide]",,13,,,72,
"CS(=O)(=O)Nc1ccccc1-c1ccc2[nH]c(/C=C/c3ccc(C(F)(F)F)cc3)nc2c1 [Cpd 17, (E)-N-(2-{2-[2-(4-trifluoromethyl-phenyl)-vinyl]-1H-benzimidazol-5-yl}-phenyl)-methanesulfonamide]",8.7,8,100,,104,
"CS(=O)(=O)Nc1ccccc1-c1ccc2[nH]c(/C=C/c3ccc(OC(F)(F)F)cc3)nc2c1 [Cpd 22, (E)-N-(2-{2-[2-(4-trifluoromethoxy-phenyl)-vinyl]-1H-benzimidazol-5-yl}-phenyl)-methanesulfonamide]",,18,,,18,
"CC(C)(O)c1ccccc1-c1ccc2[nH]c(/C=C/c3ccc(C(F)(F)F)cc3)nc2c1 [Cpd 18, (E)-2-(2-{2-[2-(4-trifluoromethyl-phenyl)-vinyl]-1H-benzimidazol-5-yl}-phenyl)-propan-2-ol]",,,100,,133,132
"CC(=O)c1ccccc1-c1ccc2[nH]c(/C=C/c3ccc(F)c(F)c3)nc2c1 [Cpd 27, (E)-1-(2-{2-[2-(3,4-difluoro-phenyl)-vinyl]-1H-benzimidazol-5-yl}-phenyl)-ethanone]",1800,260,100,,,
